Measured values from patent US20240199677A1, “GLYCOSYLTRANSFERASE INHIBITORS” (CALIFORNIA INSTITUTE OF TECHNOLOGY, priority 2018, published 2024).
In brackets after ≈: the same amount, converted by molar mass.

How the values were obtained:
[1] = system: N-glycosylation of β-catenin; test: Western blot, N-glycosylation of β-catenin (FIG. 6); format: cell-based; conditions: concentrations as low as
[2] = Hemolysis, sheep blood; format: cell-based; conditions: sheep, sheep blood
[3] = system: sheep blood; test: Hemolysis, sheep blood; format: cell-based
[4] = system: KB; test: Cytotoxicity MTT assay, KB; format: cell-based; conditions: Homo sapiens, KB; read-out: Cytotoxicity IC50 KB
Method: (§1) Selected molecules were tested for cytotoxicity (IC50) in cancer and healthy cells via a MTT colorimetric assay.
(§2) Each cell was cultured in recommended medium by ATCC, and the IC50 data were obtained with each cell line.

[5] = system: C. difficile ATCC43596; test: Minimum inhibitory concentration assay
[6] = system: AsPc-1 cells; test: Cell viability assay (FIG. 5), AsPc-1; format: cell-based; conditions: after 4 days; 1.77 μM, 3.54 μM, and 14.17 μM
Method: (§3) The cytotoxic activity of 11 against AsPc-1 and Panc-1 cells was also measured through cell viability assays (FIG. 5). […] Similarly, the percentage of viable Panc-1 cells was near-zero after about 3 days in the presence of 11 (0.44 μM, 1.77 μM, and 7.08 μM).

[7] = system: Panc-1 cells; test: Cell viability assay (FIG. 5), Panc-1; format: cell-based; conditions: after about 3 days; 0.44 μM, 1.77 μM, and 7.08 μM
Method: as §3

[8] = system: SK-OV-3; test: Cytotoxicity MTT assay, SK-OV-3; format: cell-based; conditions: Homo sapiens, SK-OV-3; read-out: Cytotoxicity IC50 SK-OV-3
Method: as §1, §2

[9] = system: HCT 116; test: Cytotoxicity MTT assay, HCT 116; format: cell-based; conditions: Homo sapiens, HCT-116, read-out: Cytotoxicity IC50 HCT 116
Method: as §1, §2

[10] = system: LoVo; test: Cytotoxicity MTT assay, LoVo; format: cell-based; conditions: Homo sapiens, LoVo; read-out: Cytotoxicity IC50 LoVo
Method: as §1, §2

[11] = system: Panc-1 cells; test: Boyden Chamber migration assay, Panc-1; format: cell-based; conditions: FIG. 7, versus Gemcitabine, Taxol, Tunicamycin
[12] = molecular target: DPAGT1 (Homo sapiens (Human), UniProt Q9H3H5); test: DPAGT1 inhibition (FIG. 6); format: biochemical
[13] = system: Panc-1; test: Cytotoxicity MTT assay, Panc-1; format: cell-based; conditions: Homo sapiens, PANC-1; read-out: Cytotoxicity IC50 Panc-1
Method: as §1, §2

[14] = system: C. difficile spores; test: Spore viability testing; format: cell-based; conditions: x2 MIC, 24 hours
[15] = system: AsPc-1; test: Cytotoxicity MTT assay, AsPc-1; format: cell-based; conditions: Homo sapiens, ASPC1; read-out: Cytotoxicity IC50 AsPc-1
Method: as §1, §2

[16] = system: MDA-MB-435S; test: Cytotoxicity MTT assay, MDA-MB-435S; format: cell-based; conditions: Homo sapiens, MDA-MB-435S; read-out: Cytotoxicity IC50 MDA-MB-435S
Method: as §1, §2

[17] = system: Caco-2; test: Cytotoxicity MTT assay, Caco-2; format: cell-based; conditions: Homo sapiens, Caco-2; read-out: Cytotoxicity IC50 Caco-2
Method: as §1, §2

[18] = Cytotoxicity MTT assay, Vero cells; format: cell-based, monkey; conditions: monkey
Method: (§4) Cytotoxicity Assays. Cytotoxicity assays were performed using Vero monkey kidney (ATCC CCL-81) and HepG2 human hepatoblastoma cell (ATCC HB-8065) lines. Vero or HepG2 cells were cultured in 75 cm^2 flasks and transferred to 96-well cell culture plates using ATCC-formulated Eagle's minimum essential medium containing 10% FBS, penicillin, and streptomycin. Serially diluted aliquots of each test compound at concentrations ranging from 0.78-200 μg/mL were added to the cells. […] The plates were incubated and cytotoxic effects were determined via the MTT assay.
as §1
(§5) Cytotoxicity Assays. For Vero cells: Vero cell was cultured in Complete eagle's minimum essential growth medium (EMEM) containing L-glutamine, sodium pyruvate, minimum essential amino acids, penicillin-streptomycin and 10% fetal bovine serum. Inoculating number of cells were 400,000 cells/mL and a final 40,000 cells/well. After 72 h of exposure of molecules to this cell line at concentrations ranging from 0.78 to 200 μg/mL, the culture medium was changed to complete EMEM without phenol red before addition of yellow tetrazolium dye; MTT. Viability was assessed on the basis of cellular conversion of MTT into a purple formazan product. The absorbance of the colored formazan product was measured at 570 nm by BioTek Synergy HT Spectrophotometer. Linearity of the MTT response to the cell number was determined.

[19] = system: Vero cells; test: Cytotoxicity MTT assay, Vero cells; format: cell-based, monkey; conditions: Primates, Vero; Table 2; read-out: Vero cells IC50
Method: as §4, §1, §5

[20] = system: B. subtilis; test: Antibacterial activity (FIG. 4), B. subtilis; format: cell-based
[21] = system: AsPc-1 cells; test: Scratch (wound healing) assay, AsPc-1; format: cell-based; conditions: FIG. 9, versus Gemcitabine
[22] = Cytotoxicity MTT assay, HepG2; format: cell-based; conditions: human
[23] = system: AsPc-1 cells; test: Synergistic assay (checkerboard), 11 and Gemcitabine; format: cell-based
Method: The FIC index was calculated according to the following equation. ΣFIC=FICA+FICB=CA/MICA+CB/MICB where MICA and MICB are MIC of drugs A and B, CA and CB are the concentrations of drugs A and B used in combination. In these interaction studies, ΣFIC of less than 0.5 represents synergistic activity.
These experiments were performed in the same manner as those of Example 7.

Sequence of DPAGT1 (Q9H3H5 whole entry, looked up): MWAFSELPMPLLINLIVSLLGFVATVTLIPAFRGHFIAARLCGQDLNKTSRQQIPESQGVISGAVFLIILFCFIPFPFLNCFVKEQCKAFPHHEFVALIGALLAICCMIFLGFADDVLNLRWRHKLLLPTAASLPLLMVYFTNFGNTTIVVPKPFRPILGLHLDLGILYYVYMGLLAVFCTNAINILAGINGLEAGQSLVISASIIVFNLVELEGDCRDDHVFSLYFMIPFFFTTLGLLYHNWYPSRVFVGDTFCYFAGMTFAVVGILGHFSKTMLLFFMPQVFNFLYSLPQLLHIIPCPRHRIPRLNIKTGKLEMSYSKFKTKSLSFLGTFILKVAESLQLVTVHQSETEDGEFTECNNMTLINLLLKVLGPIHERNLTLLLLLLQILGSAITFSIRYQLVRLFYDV

NC[C@H]1O[C@@H](O[C@H]([C@H]2O[C@@H](n3ccc(=O)[nH]c3=O)[C@H](O)[C@@H]2O)[C@H](NCCCC(=O)NCc2ccc(N3CCC(Oc4ccc(C(F)(F)F)cc4)CC3)cc2)C(N)=O)[C@H](O)[C@@H]1O [Compound 11]
Lowest concentration inhibiting N-glycosylation of β-catenin [1]: 0.39 nM | IC50 [2]: 206 µM | IC50 [3]: 206 µM | IC50 [4]: 7.09 µM | Anti-C. difficile activity [5]: display anti-C. difficile activity | MIC ([5]; Clostridioides difficile, ATCC43596, 48 h, read-out: C. difficile ATCC43596 MIC): 3.25 µg/mL (≈ 3.75 µM) | Antibacterial activity against C. difficile ([5]; FIG. 4): displayed antibacterial activity | AsPc-1 cell viability [6]: Nearly all AsPc-1 cells were killed | Percentage of viable Panc-1 cells [7]: near-zero | IC50 [8]: 2.85 µM | IC50 [9]: 3.54 µM | IC50 [10]: 0.22 µM | Panc-1 migratory cells [11]: fewer Panc-1 migratory cells than Gemcitabine, Taxol, and Tunicamycin | IC50 [12]: 0.26 µM | IC50 [13]: < 0.098 µM | Effect on viability of C. difficile spores (CFU) [14]: caused loss of viability of C. difficile spores | IC50 [15]: 0.95 µM | IC50 [16]: 7.09 µM | IC50 [17]: > 60 µM | IC50 at 72 h [18]: > 65 µM | IC50 [19]: 56.8 µM | Antibacterial activity against B. subtilis [20]: displayed antibacterial activity | AsPc-1 cell migration, scratch assay [21]: less AsPc-1 cell migration than Gemcitabine | IC50 [22]: > 60 µM | AsPc-1 cells dead/alive ([23]; Compound 11 0.0488281 μM + Gemcitabine 0.024414 μM): alive | AsPc-1 cells dead/alive ([23]; Compound 11 0.0488281 μM + Gemcitabine 0.048828 μM): alive | AsPc-1 cells dead/alive ([23]; Compound 11 0.0488281 μM + Gemcitabine 0.097656 μM): dead | AsPc-1 cells dead/alive ([23]; Compound 11 0.0488281 μM + Gemcitabine 0.195313 μM): dead | AsPc-1 cells dead/alive ([23]; Compound 11 0.0488281 μM + Gemcitabine 0.390625 μM): dead | AsPc-1 cells dead/alive ([23]; Compound 11 0.0976563 μM + Gemcitabine 0.024414 μM): alive | AsPc-1 cells dead/alive ([23]; Compound 11 0.0976563 μM + Gemcitabine 0.048828 μM): alive | AsPc-1 cells dead/alive ([23]; Compound 11 0.0976563 μM + Gemcitabine 0.097656 μM): dead | AsPc-1 cells dead/alive ([23]; Compound 11 0.0976563 μM + Gemcitabine 0.195313 μM): dead | AsPc-1 cells dead/alive ([23]; Compound 11 0.0976563 μM + Gemcitabine 0.390625 μM): dead | AsPc-1 cells dead/alive ([23]; Compound 11 0.1953125 μM + Gemcitabine 0.024414 μM): alive | AsPc-1 cells dead/alive ([23]; Compound 11 0.1953125 μM + Gemcitabine 0.048828 μM): alive | AsPc-1 cells dead/alive ([23]; Compound 11 0.1953125 μM + Gemcitabine 0.097656 μM): dead | AsPc-1 cells dead/alive ([23]; Compound 11 0.1953125 μM + Gemcitabine 0.195313 μM): dead | AsPc-1 cells dead/alive ([23]; Compound 11 0.1953125 μM + Gemcitabine 0.390625 μM): dead | AsPc-1 cells dead/alive ([23]; Compound 11 0.390625 μM + Gemcitabine 0.024414 μM): alive | AsPc-1 cells dead/alive ([23]; Compound 11 0.390625 μM + Gemcitabine 0.048828 μM): alive | AsPc-1 cells dead/alive ([23]; Compound 11 0.390625 μM + Gemcitabine 0.097656 μM): dead | AsPc-1 cells dead/alive ([23]; Compound 11 0.390625 μM + Gemcitabine 0.195313 μM): dead | AsPc-1 cells dead/alive ([23]; Compound 11 0.390625 μM + Gemcitabine 0.390625 μM): dead | AsPc-1 cells dead/alive ([23]; Compound 11 0.78125 μM + Gemcitabine 0.024414 μM): alive | AsPc-1 cells dead/alive ([23]; Compound 11 0.78125 μM + Gemcitabine 0.048828 μM): alive | AsPc-1 cells dead/alive ([23]; Compound 11 0.78125 μM + Gemcitabine 0.097656 μM): dead | AsPc-1 cells dead/alive ([23]; Compound 11 0.78125 μM + Gemcitabine 0.195313 μM): dead | AsPc-1 cells dead/alive ([23]; Compound 11 0.78125 μM + Gemcitabine 0.390625 μM): dead | Σ FIC ([23]; Entry 1: A 11 CA […] + B Gemcitabine CB 0.37 μM): 0.3 | Σ FIC ([23]; Entry 2: A 11 CA 0.22 μM + B Gemcitabine CB 0.37 μM): 0.47 | IC50 ([23]; Homo sapiens, ASPC1, 11 alone, AsPc-1 cells, read-out: IC50 A): 0.98 µM | Concentration in combination resulting in AsPc-1 cell death ([23]; as low as, 11 together with Gemcitabine): 0.0488 µM | Effect of combination of 11 and Gemcitabine ([23]; both combinations tested): synergistic effect
